Reference: patent US5057146A (priority 1986, dated 1991)
Where two headings read alike, the source gives them in different places.

Assays:
Cercospora arachidicola = assay: foliar fungal disease control, Cercospora arachidicola on peanut; assay type: in vivo
Description: (§1) The compounds were tested against a variety of foliar fungal diseases of plants. The technique employed was as follows.
(§2) The plants were grown in John Innes Potting Compost (No 1 or 2) in 4 cm diameter minipots. The test compounds were formulated either by bead milling with aqueous Dispersol T or as a solution in acetone or acetone/ethanol which was diluted to the required concentration immediately before use. […] The sprays were applied to maximum retention and the root drenches to a final concentration equivalent to approximately 40 ppm a.i./dry soil. Tween 20, to give a final concentration of 0.05%, was added when the sprays were applied to cereals.
(§3) For most of the tests the compound was applied to the soil (roots) and to the foliage (by spraying) one or two days before the plant was inoculated with the disease. An exception was the test on Erysiphe graminis in which the plants were inoculated 24 hours before treatment. Foliar pathogens were applied by spray as spore suspensions onto the leaves of test plants. After inoculation, the plants were put into an appropriate environment to allow infection to proceed and then incubated until the disease was ready for assessment. The period between inoculation and assessment varied from four to fourteen days according to the disease and environment.
(§4) The disease control was recorded by the following grading: […]

[1] = tested on: Musca domestica (houseflies - adults); assay: pest mortality, Musca domestica, contact test; assay type: in vivo; details: 500 ppm, cotton wool/sugar, duration 1 day
Description: (§5) The activity of each compound was determined using a variety of insect mites and nematode pests. The compound was used in the form of liquid preparations containing from 100 to 500 parts per million (ppm) by weight of the compound. The preparations were made by dissolving the compound in acetone and diluting the solutions with water containing 0.1% by weight of a wetting agent sold under the trade name "SYNPERONIC" NX until the liquid preparations contained the required concentration of the product. "SYNPERONIC" is a Registered Trade Mark.
(§6) The test procedure adopted with regard to each pest was basically the same and comprised supporting a number of the pests on a medium which was usually a host plant or a food stuff on which the pests feed, and treating either or both the pests and the medium with the preparations. The mortality of the pests was then assessed at periods usually varying from one to seven days after the treatment. […]

[2] = tested on: Diabrotica balteata (rootworm larvae); assay: pest mortality, Diabrotica balteata, residual test; assay type: in vivo; details: 500 ppm, filter paper/maize seed, duration 3 days
Description: as §5, §6

Puccinia recondita = assay: foliar fungal disease control, Puccinia recondita on wheat; assay type: in vivo
Description: as §1, §2, §3, §4

Pyricularia oryzae = assay type: in vivo, Pyricularia oryzae (rice)
Plasmopara viticola = assay: foliar fungal disease control, Plasmopara viticola on vine; assay type: in vivo
Description: as §1, §2, §3, §4

Erysiphe graminis hordei = assay: foliar fungal disease control, Erysiphe graminis hordei on barley; assay type: in vivo; details: inoculated 24 hours before treatment
Description: as §1, §2, §3, §4

[3] = tested on: Tetranychus uritcae (spider mites and ova); assay: pest mortality, Tetranychus uritcae, contact test; assay type: in vivo; details: 500 ppm, French bean leaf, duration 3 days
Description: as §5, §6

[4] = tested on: Chilo partellus (maize stem borers); assay: pest mortality, Chilo partellus, residual test; assay type: in vivo; details: 500 ppm, oil seed rape leaf, duration 3 days
Description: as §5, §6

Venturia inaequalis = assay: foliar fungal disease control, Venturia inaequalis on apple; assay type: in vivo
Description: as §1, §2, §3, §4

Phytophthora infestans = assay type: in vivo, Phytophthora infestans (tomato)
[5] = 100 ppm foliar spray plus root drench approx. 40 ppm a.i./dry soil

Row | Compound | disease control grading, Cercospora arachidicola (peanut) (Cercospora arachidicola; [5]) | disease control grading, Puccinia recondita (wheat) (Puccinia recondita; [5]) | disease control grading, Pyricularia oryzae (rice) (Pyricularia oryzae; [5]) | disease control grading, Plasmopara viticola (vine) (Plasmopara viticola; [5]) | disease control grading, Erysiphe graminis hordei (barley) (Erysiphe graminis hordei; [5]) | disease control grading, Venturia inaequalis (apple) (Venturia inaequalis; [5]) | disease control grading, Phytophthora infestans (tomato) (Phytophthora infestans; [5]) | also measured
1 | CO/C=C(/C(=O)OC)c1ccccc1Oc1ccc(Cl)cn1 [Compound 14 (Table I), (E)-methyl 2-[2'-(5"-chloropyridin-2"-yloxy)phenyl]-3-methoxyacrylate] | 4 | 4 | 4 | 4 | 4 | 2 (6-25% of disease on untreated plants) |  | grading of mortality, MD [1]: 9 (80-100% mortality); grading of mortality, DB [2]: 5 (50-79% mortality); grading of mortality, TUe [3]: 0 (less than 50% mortality); grading of mortality, CP [4]: 9 (80-100% mortality)
2 | CO/C=C(/C(=O)OC)c1ccccc1Oc1ccc(Br)cn1 [Compound 15 (Table I)] | 3 (trace-5% of disease on untreated plants) | 4 | 3 (trace-5% of disease on untreated plants) | 4 | 4 |  |  | grading of mortality, MD [1]: 0 (less than 50% mortality); grading of mortality, DB [2]: 9 (80-100% mortality); grading of mortality, TUe [3]: 0 (less than 50% mortality)
3 | CO/C=C(/C(=O)OC)c1ccccc1Oc1cc(C(Cl)(Cl)Cl)nc(Cl)n1 [Compound 139 (Table I)] | 4 | 4 | 2 (6-25% of disease on untreated plants) | 4 | 0 (60-100% of disease on untreated plants) | 0 (60-100% of disease on untreated plants) | 0 (60-100% of disease on untreated plants) | 
4 | CO/C=C(/C(=O)OC)c1ccccc1Oc1ncc(Cl)cn1 [Compound 67 (Table I)] |  |  |  |  |  |  |  | disease control grading, Cercospora arachidicola (peanut) (Cercospora arachidicola; 40 ppm foliar spray only): 4; disease control grading, Phytophthora infestans (tomato) (Phytophthora infestans; 40 ppm foliar spray only): 0 (60-100% of disease on untreated plants); disease control grading, Puccinia recondita (wheat) (Puccinia recondita; 40 ppm foliar spray only): 3 (trace-5% of disease on untreated plants); disease control grading, Pyricularia oryzae (rice) (Pyricularia oryzae; 40 ppm foliar spray only): 0 (60-100% of disease on untreated plants); disease control grading, Plasmopara viticola (vine) (Plasmopara viticola; 40 ppm foliar spray only): 4; disease control grading, Erysiphe graminis hordei (barley) (Erysiphe graminis hordei; 40 ppm foliar spray only): 2 (6-25% of disease on untreated plants); disease control grading, Venturia inaequalis (apple) (Venturia inaequalis; 40 ppm foliar spray only): 0 (60-100% of disease on untreated plants)
5 | CO/C=C(/C(=O)OC)c1ccccc1Oc1cc(C)ccn1 [Compound 10 (Table I)] | 3 (trace-5% of disease on untreated plants) | 4 | 4 | 4 | 4 | 4 | 4 | 
6 | CO/C=C(/C(=O)OC)c1ccccc1Oc1cccc(C(F)(F)F)n1 [Compound 22 (Table I)] | 4 | 4 | 4 | 4 | 4 | 4 | 3 (trace-5% of disease on untreated plants) | 
7 | CO/C=C(/C(=O)OC)c1ccccc1Oc1cccc(C)n1 [Compound 21 (Table I)] | 4 | 3 (trace-5% of disease on untreated plants) | 4 | 4 | 4 | 4 | 3 (trace-5% of disease on untreated plants) | 
8 | CO/C=C(/C(=O)OC)c1ccccc1Sc1ccc(Br)cn1 [Compound 15 (Table II), (E)-methyl 2-[2'-(5"-bromopyridin-2"-ylthio)phenyl]-3-methoxyacrylate] | 1 (26-59% of disease on untreated plants) | 2 (6-25% of disease on untreated plants) | 0 (60-100% of disease on untreated plants) | 4 | 3 (trace-5% of disease on untreated plants) | 0 (60-100% of disease on untreated plants) | 0 (60-100% of disease on untreated plants) | 
9 | CO/C=C(/C(=O)OC)c1ccccc1Oc1cc(C(F)(F)F)ccn1 [Compound 11 (Table I)] |  |  |  |  |  |  |  | disease control grading, Cercospora arachidicola (peanut) (Cercospora arachidicola; 25 ppm foliar spray only): 0 (60-100% of disease on untreated plants); disease control grading, Phytophthora infestans (tomato) (Phytophthora infestans; 25 ppm foliar spray only): 4; disease control grading, Puccinia recondita (wheat) (Puccinia recondita; 25 ppm foliar spray only): 3 (trace-5% of disease on untreated plants); disease control grading, Pyricularia oryzae (rice) (Pyricularia oryzae; 25 ppm foliar spray only): 2 (6-25% of disease on untreated plants); disease control grading, Plasmopara viticola (vine) (Plasmopara viticola; 25 ppm foliar spray only): 4; disease control grading, Erysiphe graminis hordei (barley) (Erysiphe graminis hordei; 25 ppm foliar spray only): 4; disease control grading, Venturia inaequalis (apple) (Venturia inaequalis; 25 ppm foliar spray only): 4
10 | CO/C=C(/C(=O)OC)c1ccccc1Sc1ccc(Cl)cn1 [Compound 14 (Table II), (E-)-methyl 2-[2'-(5"-chloropyridin-2"-ylthio)phenyl]-3-methoxyacrylate] | 4 | 4 | 3 (trace-5% of disease on untreated plants) | 4 | 4 | 4 | 0 (60-100% of disease on untreated plants) | 
11 | CO/C=C(/C(=O)OC)c1ccccc1Oc1ccc2ccccc2n1 [Compound 165 (Table I)] | 4 | 2 (6-25% of disease on untreated plants) | 2 (6-25% of disease on untreated plants) | 4 | 4 | 4 | 3 (trace-5% of disease on untreated plants) | 
